Experiments:
[1] = molecular target: T1, Dual specificity mitogen-activated protein kinase kinase 5 (Homo sapiens) (UniProt Q13163); details: HEK293, at 10 µM;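 also: MEK5 activity stimulated by EGF, read out as phospho-ERK5 on Western blot after 1 h treatment, expressed relative to control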
T1 sequence (whole entry): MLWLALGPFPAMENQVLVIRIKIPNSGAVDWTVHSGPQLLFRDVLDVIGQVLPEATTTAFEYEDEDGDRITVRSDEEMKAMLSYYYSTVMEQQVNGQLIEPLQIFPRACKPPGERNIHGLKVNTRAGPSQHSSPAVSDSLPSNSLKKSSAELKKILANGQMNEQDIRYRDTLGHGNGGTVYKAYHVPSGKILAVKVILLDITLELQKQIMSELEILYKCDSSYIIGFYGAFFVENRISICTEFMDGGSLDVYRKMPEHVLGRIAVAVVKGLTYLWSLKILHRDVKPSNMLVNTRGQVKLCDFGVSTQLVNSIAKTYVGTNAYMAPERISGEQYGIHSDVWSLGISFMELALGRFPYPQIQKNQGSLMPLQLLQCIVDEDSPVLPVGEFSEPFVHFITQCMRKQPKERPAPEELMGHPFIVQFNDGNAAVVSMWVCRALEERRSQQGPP
Description: Inhibition of EGF-induced MEK5 activity in HEK293 cells assessed as phosphorylated ERK5 level at 10 uM after 1 hr by Western blotting relative to control

[2] = molecular target: Dual specificity mitogen-activated protein kinase kinase; MEK1/2 (Homo sapiens) (UniProt P36507+Q02750); details: HEK293, at 10 µM
Description: Inhibition of EGF-induced MEK1/2 activity in HEK293 cells assessed as phosphorylated ERK1/2 level at 10 uM after 1 hr by Western blotting relative to control

SF-539 = assay: Cytotoxicity against human SF539 cells at 10 uM assessed as cell growth relative to control; type: functional; details: read-out: Activity
HCT-116 = assay: Cytotoxicity against human HCT116 cells at 10 uM assessed as cell growth relative to control; type: functional; details: read-out: Activity
SNB-19 = assay: Cytotoxicity against human SNB19 cells at 10 uM assessed as cell growth relative to control; type: functional; details: read-out: Activity
NCI-H23 = assay: Cytotoxicity against human NCI-H23 cells at 10 uM assessed as cell growth relative to control; type: functional; details: read-out: Activity
NCI-H522 = assay: Cytotoxicity against human NCI-H522 cells at 10 uM assessed as cell growth relative to control; type: functional; details: read-out: Activity
MDA-N = assay: Cytotoxicity against human MDA-N cells at 10 uM assessed as cell growth relative to control; type: functional; details: read-out: Activity
HL-60(TB) = assay: Cytotoxicity against human HL-60(TB) cells at 10 uM assessed as cell growth relative to control; type: functional; details: read-out: Activity
OVCAR-5 = assay: Cytotoxicity against human OVCAR5 cells at 10 uM assessed as cell growth relative to control; type: functional; details: read-out: Activity
PC-3 = assay: Cytotoxicity against human PC3 cells at 10 uM assessed as cell growth relative to control; type: functional; details: read-out: Activity
NCI/ADR-RES = assay: Cytotoxicity against human NCI/ADR-RES cells at 10 uM assessed as cell growth relative to control; type: functional; details: read-out: Activity
M14 = assay: Cytotoxicity against human M14 cells at 10 uM assessed as cell growth relative to control; type: functional; details: read-out: Activity
SK-MEL-5 = assay: Cytotoxicity against human SK-MEL-5 cells at 10 uM assessed as cell growth relative to control; type: functional; details: read-out: Activity
MDA-MB-231 = assay: Cytotoxicity against human MDA-MB-231 cells at 10 uM assessed as cell growth relative to control; type: functional; details: read-out: Activity
IGROV-1 = assay: Cytotoxicity against human IGROV1 cells at 10 uM assessed as cell growth relative to control; type: functional; details: read-out: Activity
A498 = assay: Cytotoxicity against human A498 cells at 10 uM assessed as cell growth relative to control; type: functional; details: read-out: Activity
DU-145 = assay: Cytotoxicity against human DU145 cells at 10 uM assessed as cell growth relative to control; type: functional; details: read-out: Activity
BT-549 = assay: Cytotoxicity against human BT549 cells at 10 uM assessed as cell growth relative to control; type: functional; details: read-out: Activity
SNB-75 = assay: Cytotoxicity against human SNB75 cells at 10 uM assessed as cell growth relative to control; type: functional; details: read-out: Activity
SK-OV-3 = assay: Cytotoxicity against human SKOV3 cells at 10 uM assessed as cell growth relative to control; type: functional; details: read-out: Activity
HOP-62 = assay: Cytotoxicity against human HOP62 cells at 10 uM assessed as cell growth relative to control; type: functional; details: read-out: Activity
U-251 = assay: Cytotoxicity against human U251 cells at 10 uM assessed as cell growth relative to control; type: functional; details: read-out: Activity
SN12C = assay: Cytotoxicity against human SN12C cells at 10 uM assessed as cell growth relative to control; type: functional; details: read-out: Activity
RXF 393 = assay: Cytotoxicity against human RXF393 cells at 10 uM assessed as cell growth relative to control; type: functional; details: read-out: Activity
CCRF-CEM = assay: Cytotoxicity against human CCRF-CEM cells at 10 uM assessed as cell growth relative to control; type: functional; details: read-out: Activity
K562 = assay: Cytotoxicity against human K562 cells at 10 uM assessed as cell growth relative to control; type: functional; details: read-out: Activity

Dual specificity mitogen-activated protein kinase kinase; MEK1/2 (Homo sapiens), sequence (P36507 whole entry, looked up): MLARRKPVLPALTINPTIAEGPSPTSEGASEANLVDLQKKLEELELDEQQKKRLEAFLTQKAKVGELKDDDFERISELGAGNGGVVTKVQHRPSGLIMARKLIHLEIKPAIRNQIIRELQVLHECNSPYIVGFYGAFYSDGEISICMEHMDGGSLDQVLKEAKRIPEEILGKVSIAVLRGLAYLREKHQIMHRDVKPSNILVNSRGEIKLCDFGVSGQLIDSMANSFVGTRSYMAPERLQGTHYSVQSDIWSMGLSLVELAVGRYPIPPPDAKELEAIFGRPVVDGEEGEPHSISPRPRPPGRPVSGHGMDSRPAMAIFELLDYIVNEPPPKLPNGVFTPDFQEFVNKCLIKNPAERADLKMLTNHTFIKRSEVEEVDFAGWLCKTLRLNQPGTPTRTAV
Dual specificity mitogen-activated protein kinase kinase; MEK1/2 (Homo sapiens), sequence (Q02750 whole entry, looked up): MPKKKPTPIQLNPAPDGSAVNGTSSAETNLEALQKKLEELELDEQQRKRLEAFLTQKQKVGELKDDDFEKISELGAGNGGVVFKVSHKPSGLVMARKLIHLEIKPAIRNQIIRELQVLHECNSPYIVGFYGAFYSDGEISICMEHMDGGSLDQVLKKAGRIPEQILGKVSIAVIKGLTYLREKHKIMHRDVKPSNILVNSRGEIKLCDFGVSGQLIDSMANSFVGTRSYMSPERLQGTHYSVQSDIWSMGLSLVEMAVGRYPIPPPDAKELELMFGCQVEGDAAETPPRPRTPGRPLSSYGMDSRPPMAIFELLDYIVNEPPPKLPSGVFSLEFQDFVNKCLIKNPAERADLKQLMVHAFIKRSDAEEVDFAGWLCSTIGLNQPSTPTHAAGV

**Q.** For `N#CC(=C(/N)Sc1ccccc1N)/C(C#N)=C(\N)Sc1ccccc1N`, which inhibition [1] is on record?
**A.** 27%

**Q.** Which results are given for `CC(C)n1cnc2c(NCc3ccccc3)cc(OCCCN3CCOCC3)cc21`?
**A.** inhibition [2]: 92%; inhibition [1]: 0%

**Q.** Which results are given for `COc1cc(N)c2c(c1)N(C(C)C)CN2`?
**A.** inhibition [2]: 18%; inhibition [1]: 42%

**Q.** Which results are given for `CC(C)Oc1cc(NCc2ccccc2)c2ncn(C(C)C)c2c1`?
**A.** inhibition [2]: 0%; inhibition [1]: 22%

**Q.** `CCCOc1cc(NCc2ccccc2)c2ncn(C(C)C)c2c1` was tested. Which inhibition [1] did it give?
**A.** 24%

**Q.** Which inhibition [1] does the source give for `CCOc1cc(NCc2ccccc2)c2ncn(C(C)C)c2c1` here?
**A.** 63%

**Q.** Which growth at 10 µM (SF-539) does the source give for `CN1CCN(c2ccc3[nH]c(-c4ccc5[nH]c(-c6ccc(O)cc6)nc5c4)nc3c2)CC1` [HOECHST 33258] here?
**A.** -4%

**Q.** And the growth at 10 µM (HCT-116)?
**A.** -4.52%

**Q.** What about the growth at 10 µM (SNB-19) of the same molecule?
**A.** -4%

**Q.** What about the growth at 10 µM (NCI-H23) of the same molecule?
**A.** -4%

**Q.** And the growth at 10 µM (NCI-H522)?
**A.** -5.52%

**Q.** And the growth at 10 µM (MDA-N)?
**A.** -5.06%

**Q.** What about the inhibition [2] of the same molecule?
**A.** 22%

**Q.** What about the growth at 10 µM (HL-60(TB)) of the same molecule?
**A.** -4.62%

**Q.** What about the growth at 10 µM (OVCAR-5) of the same molecule?
**A.** -4%

**Q.** What about the growth at 10 µM (PC-3) of the same molecule?
**A.** -4%

**Q.** And the growth at 10 µM (NCI/ADR-RES)?
**A.** -4%

**Q.** What about the growth at 10 µM (M14) of the same molecule?
**A.** -4%

**Q.** And the growth at 10 µM (SK-MEL-5)?
**A.** -4.01%

**Q.** What about the growth at 10 µM (MDA-MB-231) of the same molecule?
**A.** -4%

**Q.** What about the growth at 10 µM (IGROV-1) of the same molecule?
**A.** -4%

**Q.** And the growth at 10 µM (A498)?
**A.** -4%

**Q.** And the inhibition [1]?
**A.** 30%

**Q.** What about the growth at 10 µM (DU-145) of the same molecule?
**A.** -4%

**Q.** And the growth at 10 µM (BT-549)?
**A.** -4%

**Q.** What about the growth at 10 µM (SNB-75) of the same molecule?
**A.** -4%

**Q.** What about the growth at 10 µM (SK-OV-3) of the same molecule?
**A.** -4%

**Q.** And the growth at 10 µM (HOP-62)?
**A.** -4%

**Q.** What about the growth at 10 µM (U-251) of the same molecule?
**A.** -4%

**Q.** What about the growth at 10 µM (SN12C) of the same molecule?
**A.** -4%

**Q.** And the growth at 10 µM (RXF 393)?
**A.** -4%

**Q.** What about the growth at 10 µM (CCRF-CEM) of the same molecule?
**A.** -4.89%

**Q.** What about the growth at 10 µM (K562) of the same molecule?
**A.** -5.22%

**Q.** `CCOCCOc1cc(NCc2ccccc2)c2ncn(C(C)C)c2c1` was tested. Which inhibition [2] did it give?
**A.** 100%

**Q.** What about the inhibition [1] of the same molecule?
**A.** 75%

**Q.** Which inhibition [1] does the source give for `CCCCOc1cc(NCc2ccccc2)c2ncn(C(C)C)c2c1` here?
**A.** 5%
